Assay [1] relates to differentiated L6-myotubes. The assay is described as follows: Glucose uptake screen (Biological example 1 of WO 2019/053427). The format is cell-based. The note with it: compound at 10 μM, activity relative to isoproterenol at 10 μM; for Emax at 10 µM: read-out: Biological example 1 of WO 2019/053427 (GU). Put shortly:
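Uptake was read out as ^3H-2-deoxyglucose (50 nM, 10 min) radioactivity in NaOH lysates. Beforehand, overnight-starved, differentiated L6 myotubes received compound at 1×10^−5 M with ICI-118551 present for 1 h 40 min, followed by fresh agonist for a further 20 min in glucose-free medium.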

Assay [2] concerns differentiated L6-myotubes. The assay is described as follows: cAMP production relative to isoprenaline (Biological example 2 of WO 2019/053427). The format is cell-based. The settings on record: compound at 10 μM, activity relative to isoproterenol at 10 μM; for Emax at 10 µM: 0.25 h. Put shortly:
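Values are cAMP levels relative to isoprenaline at equal concentration (final 1×10^−5 M for both). Stimulation lasted 15 min in differentiated L6 myotubes, using HBSS buffer (pH 7.4) containing 1 mM IBMX, 5 mM HEPES and 1% BSA.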
On the technique in general: Changes in cAMP serve as a functional read-out for many G protein-coupled receptors.

Molecules are shown by their SMILES.

Consider `CCC[C@H]1CC[C@@H]([C@@H](O)c2cccc(F)c2)N1` [Compound 131, (S)-[(2S,5S)-5-propyl-2-pyrrolidinyl](m-fluorophenyl)methanol], for which the Emax at 10 µM was 50 to 75% in assay [1] and under 25% in assay [2].
On the same counts, the results for `CCC[C@@H]1CC[C@@H]([C@H](O)c2cccc(F)c2)N1` [Compound 132, (R)-[(2S,5R)-5-propyl-2-pyrrolidinyl](m-fluorophenyl)methanol] are 25 to 50% and under 25%.
For `CCC[C@@H]1CC[C@@H]([C@@H](O)c2cccc(F)c2)N1` [Compound 133, (S)-[(2S,5R)-5-propyl-2-pyrrolidinyl](m-fluorophenyl)methanol] the same measures were 50 to 75% and under 25%.
As for `CC(C)(C)NCC(O)c1ccncc1O` (stereo not drawn) [Compound 134, 4-[2-(tert-butylamino)-1-hydroxyethyl]-3-pyridinol], the Emax at 10 µM in assay [1] was over 75%; in assay [2], under 25%.
Take `CCC[C@H]1CCC[C@H]([C@H](O)c2ccccc2Cl)N1` [Compound 135, (R)-[(2R,6S)-6-propyl-2-piperidyl](o-chlorophenyl)methanol]: the Emax at 10 µM in assay [1] was 25 to 50%; in assay [2], under 25%.
With `CCC[C@@H]1CCC[C@@H]([C@H](O)c2cccc(O)c2)N1` [Compound 136, (R)-[(2S,6R)-6-propyl-2-piperidyl](m-hydroxyphenyl)methanol], the Emax at 10 µM in assay [1] was over 75%; in assay [2], under 25%.
`CCC[C@@H]1CCC[C@H]([C@@H](O)c2cccc(O)c2)N1` [Compound 137, (S)-[(2R,6R)-6-propyl-2-piperidyl](m-hydroxyphenyl)methanol]: the Emax at 10 µM in assay [1] was 25 to 50%; in assay [2] it was under 25%.
On the same counts, the results for `CC(C)(C)NC[C@H](O)c1cncc(Cl)c1` [Compound 138, (R)-2-(tert-butylamino)-1-(5-chloro-3-pyridyl)-1-ethanol] are over 75% and over 75%.
For `CCC[C@H]1CCC[C@H]([C@@H](O)c2cncc(F)c2)N1` [Compound 139, (S)-[(2R,6S)-6-propyl-2-piperidyl](5-fluoro-3-pyridyl)methanol], the Emax at 10 µM in assay [1] and in assay [2] was under 25% in each case.
As for `CCC[C@H]1CCC[C@H]([C@H](O)c2cncc(F)c2)N1` [Compound 140, (R)-[(2R,6S)-6-propyl-2-piperidyl](5-fluoro-3-pyridyl)methanol], the Emax at 10 µM in assay [1] and in assay [2] was under 25% in each case.
As to `CCC[C@@H]1CC[C@H]([C@H](O)c2cccc(Cl)c2)N1` [Compound 141, (R)-[(2R,5R)-5-propyl-2-pyrrolidinyl](m-chlorophenyl)methanol], the values for the Emax at 10 µM in assay [1] and in assay [2] were 50 to 75% and under 25%, respectively.
On to `CC1(C)CC[C@@H]([C@H](O)c2cccc(O)c2)N1` [Compound 142, m-{(R)-[(S)-5,5-dimethyl-2-pyrrolidinyl]hydroxymeth-yl}phenol], for which the Emax at 10 µM was 25 to 50% in assay [1] and under 25% in assay [2].
For `CC1(C)CC[C@@H]([C@@H](O)c2cccc(O)c2)N1` [Compound 143, m-{(S)-[(S)-5,5-dimethyl-2-pyrrolidinyl]hydroxymeth-yl}phenol] the same measures were under 25% and under 25%.
As to `CC1(C)CC[C@@H]([C@H](O)c2cccc(F)c2)N1` [Compound 144, (R)-[(S)-5,5-dimethyl-2-pyrrolidinyl](m-fluorophenyl)methanol], the Emax at 10 µM in assay [1] and in assay [2] was under 25% in each case.
Regarding `CC1(C)CC[C@@H]([C@@H](O)c2cccc(F)c2)N1` [Compound 145, (S)-[(S)-5,5-dimethyl-2-pyrrolidinyl](m-fluorophenyl)methanol], the Emax at 10 µM in assay [1] is 25 to 50%; in assay [2] it was under 25%.
On the same counts, the results for `CC(C)(C)NC[C@H](O)c1ncccc1Cl` [Compound 146, (S)-2-(tert-butylamino)-1-(3-chloro-2-pyridyl)-1-ethanol] are 25 to 50% and under 25%.
Take `CC(C)(C)NC[C@H](O)c1ccc(Cl)cn1` [Compound 147, (S)-2-(tert-butylamino)-1-(5-chloro-2-pyridyl)-1-ethanol]: the Emax at 10 µM in assay [1] was 25 to 50%; in assay [2], under 25%.
In the case of `CCC[C@@H]1CC[C@H]([C@H](O)c2ccccc2Cl)N1` [Compound 148, (R)-[(2R,5R)-5-propyl-2-pyrrolidinyl](o-chlorophenyl)methanol], the Emax at 10 µM in assay [1] is over 75%; in assay [2] it was under 25%.
As to `CC(C)(C)NC[C@H](O)c1ccc(F)c(N)c1F` [Compound 149, (R)-1-(3-amino-2,4-difluorophenyl)-2-(tert-butylamino)-1-ethanol], the results for the Emax at 10 µM in assay [1] and in assay [2] were over 75% and 25 to 50%, respectively.
As to `Cc1c(F)cccc1[C@@H](O)CNC(C)(C)C` [Compound 150, (R)-2-(tert-butylamino)-1-(3-fluoro-2-tolyl)-1-ethanol], the Emax at 10 µM is over 75% in assay [1] and 25 to 50% in assay [2].
On to `CC1(C)CC[C@H]([C@@H](O)c2ccccc2Cl)N1` [Compound 151, (S)-[(R)-5,5-dimethyl-2-pyrrolidinyl](o-chlorophenyl)methanol], for which the “Biological example 1 of WO 2019/053427 (GU)” value in assay [1] was “− (less than 25%)”. Further, the Emax at 10 µM in assay [2] was under 25%.
Regarding `CC1(C)CC[C@H]([C@@H](O)c2ccccc2Cl)N1` [Compound 152], the “Biological example 1 of WO 2019/053427 (GU)” value in assay [1] is on record as “+++ (more than 75% of that of isoproterenol at 10 μM)”. The “Biological example of WO 2019/053427 (cAMP)” value in assay [2] is given as “− (less than 25%)”.
Regarding `CC1(C)CC[C@H]([C@@H](O)c2cccc(Cl)c2)N1` [Compound 153, (S)-[(R)-5,5-dimethyl-2-pyrrolidinyl](m-chlorophenyl)methanol], the Emax at 10 µM in assay [1] was 25 to 50%; in assay [2] it was under 25%.
On the same counts, the results for `CC1(C)CC[C@H]([C@H](O)c2cccc(Cl)c2)N1` [Compound 154, (R)-[(R)-5,5-dimethyl-2-pyrrolidinyl](m-chlorophenyl)methanol] are over 75% and under 25%.
For `CCC[C@H]1CCC[C@H]([C@@H](O)c2cccc(O)c2)N1` [Compound 155, (S)-[(2R,6S)-6-propyl-2-piperidyl](m-hydroxyphenyl)methanol] the same measures were under 25% and under 25%.
In the case of `CC1(C)CC[C@H]([C@@H](O)c2cncc(F)c2)N1` [Compound 156, (S)-[(R)-5,5-dimethyl-2-pyrrolidinyl](5-fluoro-3-pyridyl)methanol], the Emax at 10 µM in assay [1] and in assay [2] was under 25% each time.
Take `CC1(C)CC[C@H]([C@H](O)c2cncc(F)c2)N1` [Compound 157, (R)-[(R)-5,5-dimethyl-2-pyrrolidinyl](5-fluoro-3-pyridyl)methanol]: the Emax at 10 µM in assay [1] was over 75%; in assay [2], under 25%.
Consider `CCCC1(CCC)CC[C@H]([C@@H](O)c2cccc(F)c2)N1` [Compound 158, (S)-[(R)-5,5-dipropyl-2-pyrrolidinyl](m-fluorophenyl)methanol], for which the Emax at 10 µM in assay [1] and in assay [2] was under 25% throughout.
As for `CCCC1(CCC)CC[C@H]([C@H](O)c2cccc(F)c2)N1` [Compound 159, (R)-[(R)-5,5-dipropyl-2-pyrrolidinyl](m-fluorophenyl)methanol], the Emax at 10 µM is 50 to 75% in assay [1] and under 25% in assay [2].
Consider `CCC[C@@H]1CC[C@H]([C@H](O)c2cncc(F)c2)N1` [Compound 160, (R)-[(2R,5R)-5-propyl-2-pyrrolidinyl](5-fluoro-3-pyridyl)methanol], for which the “Biological example 1 of WO 2019/053427 (GU)” value in assay [1] is recorded as “+++ (more than 75% of that of isoproterenol at 10 μM)”. Further, the Emax at 10 µM in assay [2] is under 25%.
As to `CCC[C@@H]1CC[C@H]([C@H](O)c2cncc(F)c2)N1` [Compound 161], in assay [1], the “Biological example 1 of WO 2019/053427 (GU)” value is “+ (between 50 and 25%)”. In addition, the “Biological example of WO 2019/053427 (cAMP)” value in assay [2] is recorded as “− (less than 25%)”.
Take `CC1(C)CCC[C@H]([C@H](O)c2ccccc2Cl)N1` [Compound 162, (R)-[(R)-6,6-dimethyl-2-piperidyl](o-chlorophenyl)methanol]: the Emax at 10 µM in assay [1] is 25 to 50%; in assay [2] it was under 25%.
`CC1(C)CCC[C@H]([C@@H](O)c2ccccc2Cl)N1` [Compound 163, (S)-[(R)-6,6-dimethyl-2-piperidyl](o-chlorophenyl)methanol]: the Emax at 10 µM is over 75% in assay [1] and under 25% in assay [2].
On to `CC1(C)CCC[C@H]([C@@H](O)c2cccc(Cl)c2)N1` [Compound 164, (S)-[(R)-6,6-dimethyl-2-piperidyl](m-chlorophenyl)methanol], for which the Emax at 10 µM in assay [1] is 50 to 75%; in assay [2], under 25%.
`CC1(C)CCC[C@H]([C@H](O)c2cccc(Cl)c2)N1` [Compound 165, (R)-[(R)-6,6-dimethyl-2-piperidyl](m-chlorophenyl)methanol]: the Emax at 10 µM in assay [1] was 25 to 50%; in assay [2], under 25%.
For the molecule `CC1(C)CC[C@H]([C@@H](O)c2cncc(O)c2)N1` [Compound 166, 5-{(S)-[(R)-5,5-dimethyl-2-pyrrolidinyl]hydroxymeth-yl}-3-pyridinol], the Emax at 10 µM in assay [1] was 25 to 50%; in assay [2] it was under 25%.

Values taken from patent publication US20260256751A1, “COMBINATION OF BETA-2-ADRENERGIC RECEPTOR AGONISTS AND GLP-1 RECEPTOR AGONISTS FOR USE IN TREATING HYPERGLYCAEMIA” (ATROGI AB, priority 2023, published 2026).
